The results in this text go back to patent US20250051293A1, “NOVEL OXADIAZOLE DERIVATIVE AND USE THEREOF” (CELROS BIOTECH, priority 2021, published 2025).

Read-outs that look alike come from different tables or passages of the source.

The target in one data set is T1, human NOX2 (Homo sapiens, UniProt P04839).
T1 construct: made in house; host or cells: transgenic Drosophila (Da-GAL4 driven UAS-hNOX2, dDuox RNAi background); membranes from homogenized flies
T1 sequence (P04839 2-570 limits assumed): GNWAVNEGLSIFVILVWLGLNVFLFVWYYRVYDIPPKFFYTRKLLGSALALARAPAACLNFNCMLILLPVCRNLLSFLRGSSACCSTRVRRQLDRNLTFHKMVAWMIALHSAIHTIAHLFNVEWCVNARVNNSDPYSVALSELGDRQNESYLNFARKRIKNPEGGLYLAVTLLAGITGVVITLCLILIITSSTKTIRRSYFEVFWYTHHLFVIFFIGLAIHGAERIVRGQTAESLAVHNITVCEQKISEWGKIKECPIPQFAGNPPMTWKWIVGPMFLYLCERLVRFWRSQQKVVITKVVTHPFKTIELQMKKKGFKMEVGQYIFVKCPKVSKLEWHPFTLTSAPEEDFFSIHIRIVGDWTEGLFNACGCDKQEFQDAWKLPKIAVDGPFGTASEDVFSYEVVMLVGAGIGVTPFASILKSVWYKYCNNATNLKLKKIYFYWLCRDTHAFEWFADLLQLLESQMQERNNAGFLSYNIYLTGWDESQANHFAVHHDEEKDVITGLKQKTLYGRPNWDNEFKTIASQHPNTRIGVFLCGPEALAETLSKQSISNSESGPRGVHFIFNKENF
As to the kind of experiment: Lucigenin chemiluminescence assay, drosophila membranes expressing hNOX2. Format: biochemical. Conditions: average of three repeats. Here is the method:
(§1) Human NOX isozymes were provided from transgenic flies expressing human NOX isozymes from the daughterless (Da)-GAL4 promoter. The genotype of each fly line is shown below. • human NOX2:UAS-hNOX2/UAS-dDuox-RNAi; Da-GAL4/+ • human NOX4:UAS-hNOX4/UAS-dDuox-RNAi; Da-GAL4/+
(§2) Transgenic flies were homogenized in PBS containing protease inhibitors (aprotinin, leupeptin) to obtain drosophila membranes of each NOX isozyme. The membranes were incubated with the compounds (100 μM, 10 μM, 1 μM, 0.1 μM, 0.01 μM, 0.001 μM, and 0 μM) for 10 minutes in a shaker. Then, to the membranes, a mixture of 500 μM NADPH (R-nicotinamide adenine dinucleotide 2′-phosphate reduced tetrasodium salt hydrate; Sigma-Aldrich) and 400 μM lucigenin (N,N′-dimethyl-9,9-biacridinium dinitrate; Sigma-Aldrich) in 1× HEPES (4-(2-hydroxyethyl)-1-piperazineethanesulfonic acid) buffer was added. Lucigenin chemiluminescence was detected at 1-minute intervals for 10 minutes using a multimode microplate reader (SpectraMax iD3, Molecular Devices). IC50 values were calculated with Graph-Pad Prism 5 (GraphPad Software).
(§3) The lucigenin chemiluminescence assay was performed with drosophila membranes expressing hNOX1, hNOX2, and hNOX4. The assay was repeated three times and the IC50 values were averaged.

The target of another data set is T2, human NOX4 (Homo sapiens, UniProt Q9NPH5).
T2 construct: made in house; host or cells: transgenic Drosophila (Da-GAL4 driven UAS-hNOX4, dDuox RNAi background); membranes from homogenized flies
T2 sequence (Q9NPH5 1-578): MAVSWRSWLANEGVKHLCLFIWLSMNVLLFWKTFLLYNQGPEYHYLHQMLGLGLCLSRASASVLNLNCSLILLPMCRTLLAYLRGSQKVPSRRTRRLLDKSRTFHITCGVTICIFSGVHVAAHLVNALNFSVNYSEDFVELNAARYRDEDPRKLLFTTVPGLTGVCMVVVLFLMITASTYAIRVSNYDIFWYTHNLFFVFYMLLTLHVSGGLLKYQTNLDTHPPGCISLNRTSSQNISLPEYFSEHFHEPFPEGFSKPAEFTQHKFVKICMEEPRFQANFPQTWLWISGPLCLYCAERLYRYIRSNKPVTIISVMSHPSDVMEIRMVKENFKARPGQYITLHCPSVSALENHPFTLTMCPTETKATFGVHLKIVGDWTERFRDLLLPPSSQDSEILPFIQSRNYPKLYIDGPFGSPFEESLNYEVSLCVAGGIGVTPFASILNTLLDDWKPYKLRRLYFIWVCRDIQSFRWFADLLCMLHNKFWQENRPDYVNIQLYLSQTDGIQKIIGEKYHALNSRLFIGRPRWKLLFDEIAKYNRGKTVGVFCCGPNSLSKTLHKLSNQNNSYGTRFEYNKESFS
Kind of data set: Lucigenin chemiluminescence assay, drosophila membranes expressing hNOX4. As to conditions: average of three repeats. Format: biochemical. As for the experimental part: as §1, §2, §3

A further data set is described as follows: PAMPA-BBB assay. Type of data set: in vitro ADME. Here is the method: The parallel artificial membrane permeability assay (PAMPA) was performed to determine the brain barrier blood (BBB) permeability. […] For the Blank measurement, the donor buffer was dispensed into a high sensitivity UV plate at 150 μl per well and the UV values were measured (Blank sample). For the initial value measurement, the mixture in the deep well plate was dispensed 150 μl per well into the UV plate and the UV values were measured (initial sample). Next, 200 μl of the test compound mixture was dispensed onto the donor plate of the PAMPA sandwich, and the acceptor plate of the PAMPA sandwich was inverted and the membrane was coated with 5 μl of BBB-lipid solution. Then, 200 μl of acceptor sink buffer was added to each well of the acceptor plate, and the acceptor plate and donor plate were combined and incubated at 25° C. for 4 hours. […] Finally, the permeability (Pe(10^−6 cm/sec)) was analyzed using the PAMPA explore program. The experiment was performed in three replicates. The permeability of the material was analyzed by UV measurement and LC-MS/MS, the specific conditions of which are described below.
Background: In PAMPA a lipid-coated filter parts donor from acceptor wells.

The nature of data set [1]: Metabolic stability in human liver microsomes. Conditions: human liver microsomes 0.5 mg/ml, 1 μM, 30 minutes, 37° C., NADPH. Type of data set: in vitro ADME. As for the experimental part: The stability of a drug may be predicted by using liver microsomes to determine the extent to which the drug is metabolized in the liver. […] Thus, a metabolic stability verification experiment was performed on the oxadiazole derivatives according to The present disclosure.
Specifically, sample treatment human liver microsomes (0.5 mg/ml), 0.1 M phosphate buffer (pH 7.4), and test compound at a concentration of 1 μM were added, and the mixture was pre-incubated at 37° C. for 5 minutes, followed by addition of NADPH Regeneration system solution and incubation at 37° C. for 30 minutes. An acetonitrile solution containing an internal standard (chlorpropamide) was then added to terminate the reaction, followed by centrifugation for 5 minutes (14,000 rpm, 4° C.). Then, the supernatant was injected into the LC-MS/MS system to analyze the substrate drug to evaluate the metabolic stability of the two compounds.
The HPLC column was an Acquity UPLC BEH Amide column (2.1×100 mm, 1.7 μm particle size; Waters, Ireland). The mobile phases were distilled water containing 0.1% formic acid (A) and acetonitrile containing 0.1% formic acid (B). Data analysis was performed using Analyst software (version 1.6.3).

A further data set deals with U87. As to the kind of experiment: Mouse model xenografted with brain tumor glioblastoma U87. Conditions: Example 2 study: Example 2 50 mg/kg 5 times per week, TMZ 5 mg/kg 2 times per week, from 20 days after xenografting; vehicle 42 days. Format: in vivo, mice. As for the experimental part:
To confirm the therapeutic effect on brain tumor glioblastoma, U87 (5×10^4), a human brain tumor cell line, was xenografted into the brains of mice to establish a brain tumor model, followed by oral administration of the drugs.
Different experimental groups were evaluated for each compound.
First, with respect to the compound of Example 1, the experimental groups were divided into Vehicle (n=3) and the compound of Example 1, 50 mg/kg (n=3) and the administered with the drug orally 5 times a week 20 days after U87 xenografting.
With respect to the compound of Example 2, the experimental groups were divided into Vehicle (n=9), TMZ 5 mg/kg (Temozolomide, n=10, 2 times per week), the compound of Example 2, 50 mg/kg (n=8, 5 times per week), and combination (TMZ+the compound of Example 2, n=7), and began receiving the drug 20 days after U87 xenografting.

[2] abbreviates: 50 μM, incubation 4 hr, pH 7.4, 25° C., U.V, read-out: Permeability Pe.

The IC50 is the concentration at which inhibition is half-maximal. Read a low IC50 as inhibition by little substance. As to `O=C(Nc1nnc(-c2cccc(Br)c2)o1)c1cc(F)cc(C(F)(F)F)c1` [Example 13, N-(5-(3-bromophenyl)-1,3,4-oxadiazol-2-yl)-3-fluoro-5-(trifluoromethyl)benzamide], the half-maximal inhibitory concentration (IC50) amounted to 150 nM on human NOX2 and 170 nM against human NOX4. Besides, the Papp at 4 h, 50 μM in the data set “PAMPA-BBB assay” (setting [2]) is above 0.4 ×10⁻⁶ cm/s. Moreover, in data set [1], the “Human (% ) remaining, microsomal stability” value (“Human (% ) remaining” for short) is 79.0%.

For `O=C(Nc1nnc(-c2cccc(Br)c2)o1)c1ccc(F)c(C(F)(F)F)c1` [Example 4, N-(5-(3-bromophenyl)-1,3,4-oxadiazol-2-yl)-4-fluoro-3-(trifluoromethyl)benzamide], the concentration for half-maximal inhibition (IC50) on human NOX2 is 210 nM; at human NOX4, 250 nM.

With `O=C(Nc1nnc(-c2ccccc2)o1)c1cc(F)cc(C(F)(F)F)c1` [Example 3, 3-fluoro-N-(5-phenyl-1,3,4-oxadiazol-2-yl)-5-(trifluoromethyl)benzamide], the IC50 against human NOX2 worked out at 240 nM; against human NOX4 it was 380 nM.

As for `O=C(Nc1nnc(-c2cccc(-c3ccoc3)c2)o1)c1ccc(F)c(C(F)(F)F)c1` [Example 10], the IC50 at human NOX2 came out at 100 nM; against human NOX4, 160 nM. Moreover, the Papp at 4 h, 50 μM in “PAMPA-BBB assay” (setting [2]) was above 0.4 ×10⁻⁶ cm/s. Moreover, in data set [1], the “Human (% ) remaining” value was 94.9%.

In the case of `CNC(=C[N+](=O)[O-])NCCSCc1ccc(CN(C)C)o1` [Ranitidine, reference compound], the Papp at 4 h, 50 μM in “PAMPA-BBB assay” (pH 7.4) is below 0.4 ×10⁻⁶ cm/s.

`Cn1nnc2c(C(N)=O)ncn2c1=O` [TMZ, Temozolomide, reference compound]: the median survival time in the data set on U87 was determined as 54.5 days.

Consider `O=C(Nc1nnc(-c2cccc(C(F)(F)F)c2)o1)c1ccc(F)c(C(F)(F)F)c1` [Example 5, 4-fluoro-3-(trifluoromethyl)-N-(5-(3-(trifluoromethyl)phenyl)-1,3,4-oxadiazol-2-yl)benzamide], for which the half-maximal inhibitory concentration (IC50) on human NOX2 was 180 nM; at human NOX4, 140 nM.

As for `O=C(Nc1nnc(-c2cccc(Cl)c2)o1)c1ccc(F)c(C(F)(F)F)c1` [Example 6, N-(5-(3-chlorophenyl)-1,3,4-oxadiazol-2-yl)-4-fluoro-3-(trifluoromethyl)benzamide], the values for the IC50 against human NOX2 and at human NOX4 were 230 nM and 270 nM, respectively.

Turning to `O=C(Nc1nnc(-c2cccc(C(F)(F)F)c2)o1)c1cc(F)cc(C(F)(F)F)c1` [Example 12, 3-fluoro-5-(trifluoromethyl)-N-(5-(3-(trifluoromethyl)phenyl)-1,3,4-oxadiazol-2-yl)benzamide], the half-maximal inhibitory concentration (IC50) was determined as 140 nM against human NOX2 and 120 nM against human NOX4. The “Human (% ) remaining” value in data set [1] was found to be 90.0%.

On to `O=C(Nc1nnc(-c2ccccc2)o1)c1ccc(I)c(C(F)(F)F)c1` [Example 7, 4-iodo-N-(5-phenyl-1,3,4-oxadiazol-2-yl)-3-(trifluoromethyl)benzamide], for which the IC50 at human NOX2 is 190 nM; against human NOX4 it was 120 nM.

In the case of `O=C(Nc1nnc(-c2cccc(-c3ccsc3)c2)o1)c1ccc(F)c(C(F)(F)F)c1` [Example 8], the 50% inhibitory concentration (IC50) on human NOX2 was found to be 160 nM; at human NOX4, 190 nM.

`O=C(Nc1nnc(-c2cccc(-c3ccsc3)c2)o1)c1cc(F)cc(C(F)(F)F)c1` [Example 9]: the IC50 against human NOX2 amounted to 150 nM; at human NOX4 it was 130 nM.

Take `CC(=O)[C@H]1CC[C@H]2[C@@H]3CCC4=CC(=O)CC[C@]4(C)[C@H]3CC[C@]12C` [Progesterone, reference compound]: the Papp at 4 h, 50 μM in “PAMPA-BBB assay” (pH 7.4) is above 0.4 ×10⁻⁶ cm/s.

With `O=C(Nc1nnc(-c2cccc(-c3ccoc3)c2)o1)c1cc(F)cc(C(F)(F)F)c1` [Example 11], the IC50 is 170 nM against human NOX2 and 260 nM on human NOX4. Also, the Papp at 4 h, 50 μM in “PAMPA-BBB assay” (setting [2]) was above 0.4 ×10⁻⁶ cm/s.
